# Laboratory results published in ChEMBL document CHEMBL1201862, “PubChem BioAssay data set” (2004).
#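 Five concentrations, 48 hours, 96-well plates. Abbreviation: GI50, concentration required for 50% inhibition of growth.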 Calls of active or inactive are those of the source. Rule as the data show it: active = GI50 up to about 1.1 µM and inactive = higher.
# Columns and labels:
# Assay in all cases: DTP human tumour cell line panel, 48 h
# MDA-N = tested on: MDA-N
# HOP-92 = tested on: HOP-92
# 786-0 = tested on: 786-0
# SK-MEL-2 = tested on: SK-MEL-2
# OVCAR-5 = tested on: OVCAR-5
# NCI/ADR-RES = tested on: NCI/ADR-RES
# HOP-62 = tested on: HOP-62
# UACC-62 = tested on: UACC-62
# HCT-15 = tested on: HCT-15
# NCI-H522 = tested on: NCI-H522
# OVCAR-3 = tested on: OVCAR-3
# HL-60 = tested on: HL-60
# SW-620 = tested on: SW-620
# EKVX = tested on: EKVX
# RXF 393 = tested on: RXF 393
# SNB-19 = tested on: SNB-19
# SN12C = tested on: SN12C
# PC-3 = tested on: PC-3
# M14 = tested on: M14
# CAKI-1 = tested on: CAKI-1
# TK-10 = tested on: TK-10
# COLO 205 = tested on: COLO 205
# IGROV-1 = tested on: IGROV-1
# Hs-578T = tested on: Hs-578T
# OVCAR-4 = tested on: OVCAR-4
# T47D = tested on: T47D
# CCRF-CEM = tested on: CCRF-CEM
# SK-MEL-28 = tested on: SK-MEL-28
# OVCAR-8 = tested on: OVCAR-8
# MOLT-4 = tested on: MOLT-4
# SNB-75 = tested on: SNB-75
# K562 = tested on: K562
# Malme-3M = tested on: Malme-3M
# SF-295 = tested on: SF-295
# UO-31 = tested on: UO-31
# KM12 = tested on: KM12
# SF-539 = tested on: SF-539
# SF-268 = tested on: SF-268
# SK-MEL-5 = tested on: SK-MEL-5
# SK-OV-3 = tested on: SK-OV-3
# A549 = tested on: A549
# HCC 2998 = tested on: HCC 2998
# HT-29 = tested on: HT-29
# LOX IMVI = tested on: LOX IMVI
# U-251 = tested on: U-251
# A498 = tested on: A498
# MDA-MB-231 = tested on: MDA-MB-231
# NCI-H23 = tested on: NCI-H23
# DU-145 = tested on: DU-145
# BT-549 = tested on: BT-549
# UACC-257 = tested on: UACC-257
# ACHN = tested on: ACHN
# HCT-116 = tested on: HCT-116
# NCI-H460 = tested on: NCI-H460
# NCI-H226 = tested on: NCI-H226
# MDA-MB-435 = tested on: MDA-MB-435
# RPMI-8226 = tested on: RPMI-8226
# SR = tested on: SR
structure (smiles),measurement,setting,value
CO[C@H]1[C@@H](O)[C@H](O[C@@H]2C[C@H]3CC[C@@H]4[C@H](CC[C@]5(C)[C@@H](C6=CC(=O)OC6)CC[C@]45O)[C@@]3(C)[C@H](OC(C)=O)C2)O[C@@H](C)[C@H]1O,GI50,MDA-N,1.64 µM (inactive)
same,GI50,HOP-92,2.54 µM (inactive)
same,GI50,786-0,1.84 µM (inactive)
same,GI50,SK-MEL-2,2.88 µM (inactive)
same,GI50,OVCAR-5,2.18 µM (inactive)
same,GI50,NCI/ADR-RES,1.77 µM (inactive)
same,GI50,HOP-62,0.933 µM (active)
same,GI50,UACC-62,2.43 µM (inactive)
same,GI50,HCT-15,1.92 µM
same,GI50,NCI-H522,0.574 µM (active)
same,GI50,OVCAR-3,0.573 µM (active)
same,GI50,HL-60,0.402 µM (active)
same,GI50,SW-620,2.36 µM (inactive)
same,GI50,EKVX,1.29 µM (inactive)
same,GI50,RXF 393,0.402 µM (active)
same,GI50,SNB-19,4.28 µM (inactive)
same,GI50,SN12C,0.552 µM (active)
same,GI50,PC-3,2.26 µM (inactive)
same,GI50,M14,2.22 µM (inactive)
same,GI50,CAKI-1,0.533 µM (active)
same,GI50,TK-10,1.17 µM (inactive)
same,GI50,COLO 205,2.06 µM (inactive)
same,GI50,IGROV-1,1.46 µM (inactive)
same,GI50,Hs-578T,2.07 µM (inactive)
same,GI50,OVCAR-4,1.39 µM (inactive)
same,GI50,T47D,3.19 µM (inactive)
same,GI50,CCRF-CEM,0.65 µM (active)
same,GI50,SK-MEL-28,4.34 µM (inactive)
same,GI50,OVCAR-8,1.73 µM (inactive)
same,GI50,MOLT-4,0.281 µM (active)
same,GI50,SNB-75,3.61 µM (inactive)
same,GI50,K562,1.96 µM (inactive)
same,GI50,Malme-3M,1.18 µM (inactive)
same,GI50,SF-295,1.13 µM (inactive)
same,GI50,UO-31,1.27 µM (inactive)
same,GI50,KM12,5.83 µM (inactive)
same,GI50,SF-539,0.573 µM (active)
same,GI50,SF-268,0.646 µM (active)
same,GI50,SK-MEL-5,0.494 µM (active)
same,GI50,SK-OV-3,2.78 µM (inactive)
same,GI50,A549,0.384 µM (active)
same,GI50,HCC 2998,7.18 µM (inactive)
same,GI50,HT-29,3.04 µM (inactive)
same,GI50,LOX IMVI,1.52 µM (inactive)
same,GI50,U-251,2.54 µM (inactive)
same,GI50,A498,1.31 µM (inactive)
same,GI50,MDA-MB-231,4.2 µM (inactive)
same,GI50,NCI-H23,0.662 µM (active)
same,GI50,DU-145,0.726 µM (active)
same,GI50,BT-549,0.637 µM (active)
same,GI50,UACC-257,2.84 µM (inactive)
same,GI50,ACHN,0.393 µM (active)
same,GI50,HCT-116,0.76 µM (active)
same,GI50,NCI-H460,0.465 µM (active)
same,GI50,NCI-H226,2.96 µM (inactive)
same,GI50,MDA-MB-435,3.19 µM (inactive)
same,GI50,RPMI-8226,2.05 µM (inactive)
C=CCc1cccc2cc(C(N)=O)c(=N)oc12,GI50,MDA-N,> 100 µM (inactive)
same,GI50,HOP-92,68.7 µM (inactive)
same,GI50,786-0,73.8 µM (inactive)
same,GI50,SK-MEL-2,99.5 µM (inactive)
same,GI50,OVCAR-5,> 100 µM (inactive)
same,GI50,NCI/ADR-RES,> 100 µM (inactive)
same,GI50,HOP-62,> 100 µM (inactive)
same,GI50,UACC-62,71.8 µM (inactive)
same,GI50,HCT-15,> 100 µM
same,GI50,OVCAR-3,> 100 µM (inactive)
same,GI50,HL-60,> 100 µM (inactive)
same,GI50,SW-620,> 100 µM (inactive)
same,GI50,RXF 393,> 100 µM (inactive)
same,GI50,SNB-19,> 100 µM (inactive)
same,GI50,SN12C,> 100 µM (inactive)
same,GI50,PC-3,> 100 µM (inactive)
same,GI50,M14,> 100 µM (inactive)
same,GI50,CAKI-1,> 100 µM (inactive)
same,GI50,COLO 205,> 100 µM (inactive)
same,GI50,IGROV-1,23.8 µM (inactive)
same,GI50,Hs-578T,> 10 µM (inactive)
same,GI50,OVCAR-4,> 100 µM (inactive)
same,GI50,T47D,41.5 µM (inactive)
same,GI50,CCRF-CEM,52.8 µM (inactive)
same,GI50,SK-MEL-28,> 100 µM (inactive)
same,GI50,OVCAR-8,> 100 µM (inactive)
same,GI50,MOLT-4,> 100 µM (inactive)
same,GI50,SNB-75,54.7 µM (inactive)
same,GI50,KM12,> 100 µM (inactive)
same,GI50,SF-268,> 10 µM (inactive)
same,GI50,SK-MEL-5,> 100 µM (inactive)
same,GI50,SK-OV-3,90.2 µM (inactive)
same,GI50,A549,> 100 µM (inactive)
same,GI50,HCC 2998,> 100 µM (inactive)
same,GI50,HT-29,> 100 µM (inactive)
same,GI50,LOX IMVI,84.7 µM (inactive)
same,GI50,U-251,> 100 µM (inactive)
same,GI50,A498,77.3 µM (inactive)
same,GI50,MDA-MB-231,> 100 µM (inactive)
same,GI50,NCI-H23,> 100 µM (inactive)
same,GI50,DU-145,> 100 µM (inactive)
same,GI50,SR,40.6 µM (inactive)
same,GI50,BT-549,> 100 µM (inactive)
same,GI50,UACC-257,> 100 µM (inactive)
same,GI50,ACHN,61.9 µM (inactive)
same,GI50,HCT-116,78.2 µM (inactive)
same,GI50,NCI-H460,> 100 µM (inactive)
same,GI50,NCI-H226,43.9 µM (inactive)
same,GI50,MDA-MB-435,95.7 µM (inactive)
same,GI50,RPMI-8226,> 100 µM (inactive)
